# Earlier results as cited in PubChem BioAssay AID1259409 (Chemical Carcinogenesis Research Information System (CCRIS), 2018).
# Test system: rodent chemically induced tumor inhibition, incidence and multiplicity
# Test: CCRIS tumor inhibitor studies
# Conditions: Route [Inhibitor]: ORAL, Promoter: NONE USED
structure (smiles),measurement,setting,value
CC1=C(/C=C/C(C)=C/C=C/C(C)=C\C(=O)O)C(C)(C)CCC1,"tumour outcome (control, treated, inhibition, significance)","Carcinogen: N-METHYL-N-NITROSOUREA, 684-93-5, Dose [Inhibitor]: 128 MG/KG DIET DAILY FOR 55 WK STARTING 1 WK AFTER LAST CARCINOGEN EXPOSURE (STUDY DURATION: 65 WK), Species: HAMSTER, Strain/Sex: SYRIAN/MALE, Target Tissue: Type of Lesion: TRACHEA: TUMOR, Dose [Carcinogen]: 1% FOR 7 SECONDS 2/WK FOR 9 WK","30/37 (81%), 26/34 (76%), 6%, not significant"
same,"tumour outcome (control, treated, inhibition, significance)","Carcinogen: N-METHYL-N-NITROSOUREA, 684-93-5, Dose [Inhibitor]: 172 MG/KG DIET DAILY FOR 55 WK STARTING 1 WK AFTER LAST CARCINOGEN EXPOSURE (STUDY DURATION: 67.5 WK), Species: HAMSTER, Strain/Sex: SYRIAN/MALE, Target Tissue: Type of Lesion: TRACHEA: TUMORS, Dose [Carcinogen]: 1% FOR 7 SECONDS 2/WK FOR 11.5 WK","24/40 (60%), 24/40 (60%), 0%, not significant"
same,"tumour outcome (control, treated, inhibition, significance)","Carcinogen: N-METHYL-N-NITROSOUREA, 684-93-5, Dose [Inhibitor]: 240 MG/KG OF DIET DAILY STARTING 5 D AFTER FINAL CARCINOGEN TREATMENT AND CONTINUING THROUGH END OF STUDY (STUDY DURATIO, Species: RAT, Strain/Sex: F344/MALE, Target Tissue: Type of Lesion: COLON: INVASIVE TUBULOPAPILLARY ADENOCARCINOMA, Dose [Carcinogen]: 0.5 MG 2/WK FOR 8 WK","33%, 27%, 18%, not significant"
same,"tumour outcome (control, treated, inhibition, significance)","Carcinogen: N-METHYL-N-NITROSOUREA, 684-93-5, Dose [Inhibitor]: 240 MG/KG OF DIET DAILY STARTING 5 D AFTER FINAL CARCINOGEN TREATMENT AND CONTINUING THROUGH END OF STUDY (STUDY DURATIO, Species: RAT, Strain/Sex: F344/MALE, Target Tissue: Type of Lesion: COLON: INVASIVE TUBULOPAPILLARY ADENOCARCINOMA, Dose [Carcinogen]: 1 MG 2/WK FOR 8 WK","80%, 90%, -13%, not significant"
same,"tumour outcome (control, treated, inhibition, significance)","Carcinogen: N-METHYL-N-NITROSOUREA, 684-93-5, Dose [Inhibitor]: 240 MG/KG OF DIET DAILY STARTING 5 D AFTER FINAL CARCINOGEN TREATMENT AND CONTINUING THROUGH END OF STUDY (STUDY DURATIO, Species: RAT, Strain/Sex: F344/MALE, Target Tissue: Type of Lesion: COLON: INVASIVE TUBULOPAPILLARY ADENOCARCINOMA, Dose [Carcinogen]: 2 MG 2/WK FOR 8 WK","95%, 100%, -5%, not significant"
same,"tumour outcome (control, treated, inhibition, significance)","Carcinogen: N-NITROBIS(2-OXOPROPYL)AMINE, 60559-38-4, Dose [Inhibitor]: 0.4 MMOL/KG/D IN DIET STARTING 1 WK AFTER CARCINOGEN TREATMENT AND CONTINUING THROUGH THE END OF THE STUDY (STUDY DURATI, Species: HAMSTER, Strain/Sex: SYRIAN/FEMALE, Target Tissue: Type of Lesion: LIVER: BENIGN TUMOR, Dose [Carcinogen]: 40 MG/KG BW ONCE","4/20 (20%), 10/15 (67%), -235%, p<0.05"
same,"tumour outcome (control, treated, inhibition, significance)","Carcinogen: N-NITROBIS(2-OXOPROPYL)AMINE, 60559-38-4, Dose [Inhibitor]: 0.4 MMOL/KG/D IN DIET STARTING 1 WK AFTER CARCINOGEN TREATMENT AND CONTINUING THROUGH THE END OF THE STUDY (STUDY DURATI, Species: HAMSTER, Strain/Sex: SYRIAN/FEMALE, Target Tissue: Type of Lesion: PANCREAS: DUCTULAR ADENOMA, Dose [Carcinogen]: 40 MG/KG BW ONCE","12/20 (60%), 7/14 (50%), 17%, not significant"
same,"tumour outcome (control, treated, inhibition, significance)","Carcinogen: N-NITROBIS(2-OXOPROPYL)AMINE, 60559-38-4, Dose [Inhibitor]: 0.4 MMOL/KG/D IN DIET STARTING 1 WK AFTER CARCINOGEN TREATMENT AND CONTINUING THROUGH THE END OF THE STUDY (STUDY DURATI, Species: HAMSTER, Strain/Sex: SYRIAN/FEMALE, Target Tissue: Type of Lesion: PANCREAS: DUCTULAR CARCINOMA, Dose [Carcinogen]: 40 MG/KG BW ONCE","6/20 (30%), 9/14 (64%), -113%, not significant"
same,"tumour outcome (control, treated, inhibition, significance)","Carcinogen: N-NITROBIS(2-OXOPROPYL)AMINE, 60559-38-4, Dose [Inhibitor]: 0.4 MMOL/KG/D IN DIET STARTING 1 WK AFTER CARCINOGEN TREATMENT AND CONTINUING THROUGH THE END OF THE STUDY (STUDY DURATI, Species: HAMSTER, Strain/Sex: SYRIAN/MALE, Target Tissue: Type of Lesion: PANCREAS: DUCTULAR CARCINOMA, Dose [Carcinogen]: 40 MG/KG BW ONCE","5/24 (21%), 9/24 (38%), -81%, not significant"
same,"tumour outcome (control, treated, inhibition, significance)","Carcinogen: N-NITROBIS(2-OXOPROPYL)AMINE, 60559-38-4, Dose [Inhibitor]: 0.4 OR 0.8 MMOL/KG DIET DAILY STARTING 1 WK AFTER CARCINOGEN TREATMENT AND CONTINUING THROUGH THE END OF THE STUDY (STUD, Species: HAMSTER, Strain/Sex: SYRIAN/FEMALE, Target Tissue: Type of Lesion: LIVER: BENIGN TUMOR, Dose [Carcinogen]: 40 MG/KG BW ONCE","4/20 (20%), 10/15 (67%), -235%, p<0.05"
same,"tumour outcome (control, treated, inhibition, significance)","Carcinogen: N-NITROBIS(2-OXOPROPYL)AMINE, 60559-38-4, Dose [Inhibitor]: 0.4 OR 0.8 MMOL/KG DIET DAILY STARTING 1 WK AFTER CARCINOGEN TREATMENT AND CONTINUING THROUGH THE END OF THE STUDY (STUD, Species: HAMSTER, Strain/Sex: SYRIAN/FEMALE, Target Tissue: Type of Lesion: PANCREAS: DUCTULAR ADENOMA, Dose [Carcinogen]: 10 MG/KG BW ONCE","5/23 (22%), 9/23 (39%), -77%, not significant"
